Assay results: PMC8913315, “Comparison of glycoside hydrolase family 3 β-xylosidases from basidiomycetes and ascomycetes reveals evolutionarily distinct xylan degradation systems” (The Journal of Biological Chemistry, 2022)

Assays:
PcBxl3 = biological target: T1, PcBxl3 (Phanerodontia chrysosporium, UniProt Z9K6S9QQP9); test: X-ray crystal structure, […] Å; format: binding; conditions: crystal soaked briefly in 100 mM xylobiose, 40% PEG 400; Endo H deglycosylated; subsite -1
T1 construct: cDNA from strain K-3, pPICZalpha A, secreted from Pichia pastoris KM71H; 743 residues; glycosylated, Endo H treated for crystals; monomer in asymmetric unit
T1 sequence (Z9K6S9QQP9 1-743): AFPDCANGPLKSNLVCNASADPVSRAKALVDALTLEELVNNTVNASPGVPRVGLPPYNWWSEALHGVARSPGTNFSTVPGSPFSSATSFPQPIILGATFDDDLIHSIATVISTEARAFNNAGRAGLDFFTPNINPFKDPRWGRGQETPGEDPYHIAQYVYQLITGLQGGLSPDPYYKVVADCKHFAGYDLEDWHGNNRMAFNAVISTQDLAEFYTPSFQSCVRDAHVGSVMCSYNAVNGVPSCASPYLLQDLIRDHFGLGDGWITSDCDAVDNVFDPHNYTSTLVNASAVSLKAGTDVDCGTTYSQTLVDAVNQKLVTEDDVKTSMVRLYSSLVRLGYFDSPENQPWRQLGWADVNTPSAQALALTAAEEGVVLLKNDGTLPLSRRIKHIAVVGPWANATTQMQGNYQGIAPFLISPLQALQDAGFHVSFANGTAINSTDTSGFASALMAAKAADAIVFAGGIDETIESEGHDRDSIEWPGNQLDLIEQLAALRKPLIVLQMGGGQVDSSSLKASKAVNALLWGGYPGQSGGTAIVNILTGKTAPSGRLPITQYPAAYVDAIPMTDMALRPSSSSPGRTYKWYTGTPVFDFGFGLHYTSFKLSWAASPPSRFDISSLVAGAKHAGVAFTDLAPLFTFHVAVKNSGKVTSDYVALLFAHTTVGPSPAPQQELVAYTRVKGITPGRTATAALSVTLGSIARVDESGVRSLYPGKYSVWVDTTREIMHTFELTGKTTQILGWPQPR

TrXyl3A = biological target: T2, TrXyl3A (Trichoderma reesei, UniProt Q92458); test: X-ray crystal structure, […] Å; format: binding; conditions: crystal soaked 1 h with 14 mM 4-thioxylobiose, pH 7.0; subsites -1 and +1
T2 construct: gene bxl1; kinetics: synthetic gene codon-optimized, pPICZalpha A, secreted from Pichia pastoris KM71H; crystals: protein gift from DuPont Industrial Bioscience; 777 residues; dimer in asymmetric unit
T2 sequence (Q92458 entry or part of it): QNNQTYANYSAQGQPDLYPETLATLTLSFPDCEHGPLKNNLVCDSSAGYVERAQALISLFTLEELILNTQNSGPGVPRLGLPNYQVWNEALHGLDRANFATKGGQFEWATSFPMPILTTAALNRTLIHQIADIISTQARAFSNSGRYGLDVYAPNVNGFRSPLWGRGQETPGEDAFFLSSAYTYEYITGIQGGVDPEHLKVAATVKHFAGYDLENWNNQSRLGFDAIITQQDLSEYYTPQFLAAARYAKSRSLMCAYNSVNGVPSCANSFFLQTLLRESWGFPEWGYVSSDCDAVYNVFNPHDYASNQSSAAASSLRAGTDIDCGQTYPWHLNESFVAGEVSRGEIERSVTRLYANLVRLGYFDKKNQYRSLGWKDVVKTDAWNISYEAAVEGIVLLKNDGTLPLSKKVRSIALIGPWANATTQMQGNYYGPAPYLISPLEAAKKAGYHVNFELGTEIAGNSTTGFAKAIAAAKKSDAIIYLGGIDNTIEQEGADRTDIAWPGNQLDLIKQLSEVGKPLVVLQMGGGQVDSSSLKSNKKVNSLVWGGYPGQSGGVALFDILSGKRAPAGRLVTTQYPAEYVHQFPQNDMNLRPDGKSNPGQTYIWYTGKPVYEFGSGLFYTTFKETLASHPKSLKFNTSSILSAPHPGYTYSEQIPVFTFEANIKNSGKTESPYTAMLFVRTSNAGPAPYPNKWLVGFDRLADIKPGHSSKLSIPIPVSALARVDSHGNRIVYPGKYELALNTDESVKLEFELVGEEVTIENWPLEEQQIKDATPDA

Compound | X-ray crystal structure, 3.08 Å (PcBxl3) | X-ray crystal structure, 2.1 Å (TrXyl3A)
OC1OC[C@@H](O)[C@H](O)[C@H]1O (some centres unmarked) [X, xylose] | The structure of PcBxl3 with xylose bound in the catalytic center was also determined | –
OC1OC[C@@H](S[C@@H]2OC[C@@H](O)[C@H](O)[C@H]2O)[C@H](O)[C@H]1O (some centres unmarked) [4-thioxylobiose] | – | The crystal structure of TrXyl3A bound with thioxylobiose was determined by molecular replacement
